In patent US11000033B2, “Ketone or oxime compound, and herbicide” (NISSAN CHEMICAL CORPORATION, priority 2014, dated 2021):

What was measured:
Assay type in all cases: in vivo
[1] = test system: Scirpus juncoides; assay: Test Example 2: herbicidal activity, application during weed generation in submerged conditions (symbol B); conditions: Table 23; application herbicide amount 320 g/ha; grade 0-5 by criteria of Test Example 1
Outline: (§1)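 Visual herbicidal ratings, taken three weeks after dosing, reflect post-emergence water-surface application to seedlings at one to two leaves. Conditions: co-sown weeds in alluvial soil flooded to 4 cm, greenhouse held at 25° C. to 30° C.; compound given as water-diluted emulsion at a fixed herbicide amount.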

[2] = test system: Apera spica-venti; assay: Test Example 4: herbicidal effect by soil treatment (symbol L); conditions: for Herbicidal effect grade, L: Apera spica-venti: application herbicide amount 320 g/ha; for L: Apera spica-venti, herbicidal effect grade: 320 g/ha
Outline: (§2)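 Seeds were sown in sterilized diluvial soil, covered with about 1.5 cm of soil, and the soil surface was sprayed with a water-diluted emulsion of the compound at a predetermined rate. Plants grew in a greenhouse at 25° C. to 30° C.; effects were scored visually 3 weeks after application.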

[3] = test system: Abutilon theophrasti; assay: Test Example 4: herbicidal effect by soil treatment (symbol M); conditions: for Herbicidal effect grade, M: Abutilon theophrasti: application herbicide amount 320 g/ha; for M: Abutilon theophrasti, herbicidal effect grade: 320 g/ha
Outline: as §2

[4] = test system: Echinochloa oryzacola Vasing.; assay: Test Example 2: herbicidal activity, application during weed generation in submerged conditions (symbol A); conditions: Table 23; application herbicide amount 320 g/ha; grade 0-5 by criteria of Test Example 1
Outline: as §1

[5] = test system: Digitaria ciliaris; assay: Test Example 5: herbicidal effect by foliage application, plastic box (symbol F); conditions: 320 g/ha, 3 weeks after application
Outline: (§3)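 Visual herbicidal score, taken three weeks post-application, of seedlings sprayed on the foliage with water-diluted emulsion at a predetermined amount; plants were 14 days old, greenhouse-raised at 25° C. to 30° C.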

[6] = test system: corn; assay: Test Example 4: effect on crop by soil treatment (symbol c); conditions: for Effect on crop grade, c: corn: application herbicide amount 320 g/ha; for c: corn, effect grade on crop: 320 g/ha
Outline: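 Greenhouse culture at 25° C. to 30° C. followed sowing of seed in spots on sterilized diluvial soil with a soil cover close to 1.5 cm thick.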

[7] = test system: corn; assay: Test Example 5: effect on crop by foliage application, plastic box (symbol c); conditions: 320 g/ha, 3 weeks after application
Outline: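 Soil: sterilized diluvial. Container: plastic box, 21 × 13 cm, 7 cm deep. Sowing: spot-like, ~1.5 cm cover. Growth: greenhouse, 25° C. to 30° C.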

[8] = test system: Echinochloa crus-galli var. crus-galli; assay: Test Example 3: herbicidal effect by foliage application, Wagner pot (symbol H); conditions: application herbicide amount 320 g/ha; for H (Echinochloa crus-galli var. crus-galli) herbicidal effect grade: Table 24
Outline: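 Herbicidal activity was rated three weeks after a foliar spray of diluted emulsion concentrate, applied at a predetermined dose to plants grown for 14 days from seed in waterlogged alluvial soil within a 25–30 °C greenhouse.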

[9] = test system: Alopecurus myosuroides; assay: Test Example 4: herbicidal effect by soil treatment (symbol J); conditions: for Herbicidal effect grade, J: Alopecurus myosuroides: application herbicide amount 320 g/ha; for J: Alopecurus myosuroides, herbicidal effect grade: 320 g/ha
Outline: as §2

[10] = test system: Veronica persica; assay: Test Example 5: herbicidal effect by foliage application, plastic box (symbol R); conditions: 320 g/ha, 3 weeks after application
Outline: as §3

[11] = test system: Avena fatua; assay: Test Example 4: herbicidal effect by soil treatment (symbol I); conditions: for Herbicidal effect grade, I: Avena fatua: application herbicide amount 320 g/ha; for I: Avena fatua, herbicidal effect grade: 320 g/ha
Outline: as §2

[12] = test system: Amaranthus retroflexus; assay: Test Example 5: herbicidal effect by foliage application, plastic box (symbol N); conditions: 320 g/ha, 3 weeks after application
Outline: as §3

[13] = test system: transplanted rice plant; assay: Test Example 1: effect on crop, application before weed generation in submerged conditions (symbol a); conditions: application herbicide amount 320 g/ha
Outline: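 Alluvial soil pots flooded to 4 cm water, sown with Echinochloa oryzacola, Scirpus juncoides and Monochoria vaginalis, then transplanted with 2.5 leaf stage rice seedlings; pre-emergence application. Greenhouse 25° C. to 30° C.; scored 0–5 by herbicidal ratio 3 weeks after application.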

[14] = test system: Alopecurus myosuroides; assay: Test Example 5: herbicidal effect by foliage application, plastic box (symbol J); conditions: 320 g/ha, 3 weeks after application
Outline: as §3

SMILES | Herbicidal effect grade, B: Scirpus juncoides [1] | Herbicidal effect grade, L: Apera spica-venti [2] | Herbicidal effect grade, M: Abutilon theophrasti [3] | Herbicidal effect grade, A: Echinochloa oryzacola Vasing. [4] | F: Digitaria ciliaris, herbicidal effect grade [5] | Effect on crop grade, c: corn [6] | c: corn, effect on crop grade [7] | H (Echinochloa crus-galli var. crus-galli) herbicidal effect grade [8] | L: Apera spica-venti, herbicidal effect grade [2] | M: Abutilon theophrasti, herbicidal effect grade [3] | F: Digitaria ciliaris, herbicidal effect (criteria 0-5) [5] | c: corn, effect grade on crop [6] | c: corn, effect on crop (criteria 0-5) [7] | herbicidal effect on H (Echinochloa crus-galli var. crus-galli), grade 0-5 [8] | J: Alopecurus myosuroides, herbicidal effect grade [9] | R: Veronica persica, herbicidal effect (criteria 0-5) [10] | I: Avena fatua, herbicidal effect grade [11] | N: Amaranthus retroflexus, herbicidal effect (criteria 0-5) [12] | Effect grade on crop, a: transplanted rice plant [13] | J: Alopecurus myosuroides, herbicidal effect (criteria 0-5) [14] | also measured
CC#Cc1cc(C)c(C2=C(O)CC(CC(=NOC)C(C)C)C2=O)c(C)c1 (stereo not shown) [9-006] | 4 (Herbicidal ratio of 70% or higher and lower than 90%) | 5 (Herbicidal ratio of 90% or more (almost completely withered)) | 0 (Herbicidal ratio of 5% or lower (almost no effect)) | 5 (Herbicidal ratio of 90% or more (almost completely withered)) | 5 (Herbicidal ratio of 90% or more (almost completely withered)) | 5 (Herbicidal ratio of 90% or more (almost completely withered)) | 5 (Herbicidal ratio of 90% or more (almost completely withered)) | 5 (Herbicidal ratio of 90% or more (almost completely withered)) | – | – | – | – | – | – | – | – | – | – | – | – | Herbicidal effect grade, J: Alopecurus myosuroides [9]: 5 (Herbicidal ratio of 90% or more (almost completely withered)); R: Veronica persica, herbicidal effect grade [10]: 4 (Herbicidal ratio of 70% or higher and lower than 90%); Herbicidal effect grade, I: Avena fatua [11]: 4 (Herbicidal ratio of 70% or higher and lower than 90%); N: Amaranthus retroflexus, herbicidal effect grade [12]: 0 (Herbicidal ratio of 5% or lower (almost no effect)); a (transplanted rice plant) effect on crop grade [13]: 5 (Herbicidal ratio of 90% or more (almost completely withered)); J: Alopecurus myosuroides, herbicidal effect grade [14]: 5 (Herbicidal ratio of 90% or more (almost completely withered))
CC#Cc1cc(C)c(C2=C(O)CC(CC(C)=NOCC(F)(F)F)C2=O)c(C)c1 (stereo not shown) [9-011] | 5 (Herbicidal ratio of 90% or more (almost completely withered)) | 5 (Herbicidal ratio of 90% or more (almost completely withered)) | 3 (Herbicidal ratio of 40% or higher and lower than 70%) | 5 (Herbicidal ratio of 90% or more (almost completely withered)) | 5 (Herbicidal ratio of 90% or more (almost completely withered)) | 5 (Herbicidal ratio of 90% or more (almost completely withered)) | 5 (Herbicidal ratio of 90% or more (almost completely withered)) | 5 (Herbicidal ratio of 90% or more (almost completely withered)) | – | – | – | – | – | – | – | – | – | – | – | – | Herbicidal effect grade, J: Alopecurus myosuroides [9]: 5 (Herbicidal ratio of 90% or more (almost completely withered)); R: Veronica persica, herbicidal effect grade [10]: 3 (Herbicidal ratio of 40% or higher and lower than 70%); Herbicidal effect grade, I: Avena fatua [11]: 3 (Herbicidal ratio of 40% or higher and lower than 70%); N: Amaranthus retroflexus, herbicidal effect grade [12]: 2 (Herbicidal ratio of 20% or higher and lower than 40%); a (transplanted rice plant) effect on crop grade [13]: 5 (Herbicidal ratio of 90% or more (almost completely withered)); J: Alopecurus myosuroides, herbicidal effect grade [14]: 5 (Herbicidal ratio of 90% or more (almost completely withered))
CON=C(C)CC1CC(OC(=O)C#C[Si](C)(C)C)=C(c2c(C)cc(C)cc2C)C1=O (stereo not shown) [1-096] | 5 (Herbicidal ratio of 90% or more (almost completely withered)) | – | – | 5 (Herbicidal ratio of 90% or more (almost completely withered)) | – | – | – | – | 5 (Herbicidal ratio of 90% or more (almost completely withered)) | 4 (Herbicidal ratio of 70% or higher and lower than 90%) | 5 (Herbicidal ratio of 90% or more (almost completely withered)) | 4 (Herbicidal ratio of 70% or higher and lower than 90%) | 5 (Herbicidal ratio of 90% or more (almost completely withered)) | 5 (Herbicidal ratio of 90% or more (almost completely withered)) | 5 (Herbicidal ratio of 90% or more (almost completely withered)) | 3 (Herbicidal ratio of 40% or higher and lower than 70%) | 3 (Herbicidal ratio of 40% or higher and lower than 70%) | 2 (Herbicidal ratio of 20% or higher and lower than 40%) | 5 (Herbicidal ratio of 90% or more (almost completely withered)) | 5 (Herbicidal ratio of 90% or more (almost completely withered)) | –
CON=C(C)CC1CC(OC(=O)C(CSC)=NOC)=C(c2c(C)cc(C)cc2C)C1=O (stereo not shown) [1-098] | 4 (Herbicidal ratio of 70% or higher and lower than 90%) | – | – | 5 (Herbicidal ratio of 90% or more (almost completely withered)) | – | – | – | – | 5 (Herbicidal ratio of 90% or more (almost completely withered)) | 4 (Herbicidal ratio of 70% or higher and lower than 90%) | 5 (Herbicidal ratio of 90% or more (almost completely withered)) | 5 (Herbicidal ratio of 90% or more (almost completely withered)) | 5 (Herbicidal ratio of 90% or more (almost completely withered)) | 5 (Herbicidal ratio of 90% or more (almost completely withered)) | 5 (Herbicidal ratio of 90% or more (almost completely withered)) | 3 (Herbicidal ratio of 40% or higher and lower than 70%) | 2 (Herbicidal ratio of 20% or higher and lower than 40%) | 0 (Herbicidal ratio of 5% or lower (almost no effect)) | 5 (Herbicidal ratio of 90% or more (almost completely withered)) | 5 (Herbicidal ratio of 90% or more (almost completely withered)) | –
CCCON=C(C)CC1CC(O)=C(c2c(C)cc(C)cc2C)C1=O (stereo not shown) [1-123] | 3 (Herbicidal ratio of 40% or higher and lower than 70%) | – | – | 5 (Herbicidal ratio of 90% or more (almost completely withered)) | – | – | – | – | 5 (Herbicidal ratio of 90% or more (almost completely withered)) | 3 (Herbicidal ratio of 40% or higher and lower than 70%) | 5 (Herbicidal ratio of 90% or more (almost completely withered)) | 3 (Herbicidal ratio of 40% or higher and lower than 70%) | 5 (Herbicidal ratio of 90% or more (almost completely withered)) | 5 (Herbicidal ratio of 90% or more (almost completely withered)) | 5 (Herbicidal ratio of 90% or more (almost completely withered)) | 4 (Herbicidal ratio of 70% or higher and lower than 90%) | 4 (Herbicidal ratio of 70% or higher and lower than 90%) | 0 (Herbicidal ratio of 5% or lower (almost no effect)) | 5 (Herbicidal ratio of 90% or more (almost completely withered)) | 5 (Herbicidal ratio of 90% or more (almost completely withered)) | –
